# Experimental data taken from ChEMBL document CHEMBL3885881, “DrugMatrix”.
# Organism: Rattus norvegicus
# Assay: DrugMatrix - Regimen: Daily Repeat
# Format: toxicity, organism-based, Sprague-Dawley
# Parameters: regimen Daily Repeat, gender Male, age 6-8 weeks
# Conditions: in vivo, po, route oral GAVAGE, vehicle .5 % CMC; for ALANINE AMINOTRANSFERASE / ALBUMIN / ALKALINE PHOSPHATASE / ASPARTATE AMINOTRANSFERASE / BLOOD UREA NITROGEN / CARBON DIOXIDE / CHLORIDE / CHOLESTEROL / CREATINE PHOSPHOKINASE / CREATININE / GLUCOSE / LACTATE DEHYDROGENASE / LIPASE / PHOSPHORUS / POTASSIUM / SODIUM / TOTAL BILIRUBIN / TOTAL PROTEIN / URIC ACID: tissue Plasma; for ABSOLUTE BASOPHIL / ABSOLUTE EOSINOPHIL / ABSOLUTE LYMPHOCYTE / ABSOLUTE MONOCYTE / ABSOLUTE SEGMENTED NEUTROPHIL / BASOPHIL / EOSINOPHIL / ERYTHROCYTE COUNT / HEMATOCRIT / HEMOGLOBIN / LEUKOCYTE COUNT / LYMPHOCYTE / MEAN CORPUSCULAR HEMOGLOBIN / MEAN CORPUSCULAR HEMOGLOBIN CONCENTRATION / MEAN CORPUSCULAR VOLUME / MONOCYTE / NEUTROPHIL / NUCLEATED RED BLOOD CELLS / PLATELET COUNT: tissue Blood
# [1] = 10 mg/kg, 72 h, dose level Low, time 3 day
# [2] = 10 mg/kg, 120 h, dose level Low, time 5 day
# [3] = 2500 mg/kg, 72 h, dose level High, time 3 day
structure (smiles),measurement,setting,value
CCOC(=O)[C@H](CCc1ccccc1)N[C@@H](C)C(=O)N1Cc2ccccc2C[C@H]1C(=O)O,ALANINE AMINOTRANSFERASE,[1],57.33 u/L
same,ALBUMIN,[1],4.43 G/DL
same,ALKALINE PHOSPHATASE,[1],414 u/L
same,ASPARTATE AMINOTRANSFERASE,[1],111.67 u/L
same,BLOOD UREA NITROGEN,[1],19.33 mg/dL
same,CARBON DIOXIDE,[1],27 mmol/L
same,CHLORIDE,[1],101.33 MEQ/L
same,CHOLESTEROL,[1],71.67 mg/dL
same,CREATINE PHOSPHOKINASE,[1],1227 u/L
same,CREATININE,[1],0.15 mg/dL
same,GLUCOSE,[1],179.67 mg/dL
same,LACTATE DEHYDROGENASE,[1],229.67 u/L
same,LIPASE,[1],10 u/L
same,PHOSPHORUS,[1],12.13 mg/dL
same,POTASSIUM,[1],6.89 MEQ/L
same,SODIUM,[1],142.53 MEQ/L
same,TOTAL BILIRUBIN,[1],0.23 mg/dL
same,TOTAL PROTEIN,[1],6.1 G/DL
same,URIC ACID,[1],1.73 mg/dL
same,ABSOLUTE BASOPHIL,[2],0 CELLS/uL
same,ABSOLUTE EOSINOPHIL,[2],0 CELLS/uL
same,ABSOLUTE LYMPHOCYTE,[2],9146.67 CELLS/uL
same,ABSOLUTE MONOCYTE,[2],149.33 CELLS/uL
same,ABSOLUTE SEGMENTED NEUTROPHIL,[2],970.67 CELLS/uL
same,BASOPHIL,[2],0%
same,EOSINOPHIL,[2],0%
same,ERYTHROCYTE COUNT,[2],5.39 x10E6/uL
same,HEMATOCRIT,[2],34.63%
same,HEMOGLOBIN,[2],13.67 G/DL
same,LEUKOCYTE COUNT,[2],10.27 x10E3/uL
same,LYMPHOCYTE,[2],89.33%
same,MEAN CORPUSCULAR HEMOGLOBIN,[2],25.4 pg
same,MEAN CORPUSCULAR HEMOGLOBIN CONCENTRATION,[2],39.47 G/DL
same,MEAN CORPUSCULAR VOLUME,[2],64.27 fL
same,MONOCYTE,[2],1.33%
same,NEUTROPHIL,[2],9.33%
same,NUCLEATED RED BLOOD CELLS,[2],0 /100WBC
same,PLATELET COUNT,[2],1332.67 x10E3/uL
same,ALANINE AMINOTRANSFERASE,[2],53 u/L
same,ALBUMIN,[2],4.43 G/DL
same,ALKALINE PHOSPHATASE,[2],351.67 u/L
same,ASPARTATE AMINOTRANSFERASE,[2],77 u/L
same,BLOOD UREA NITROGEN,[2],17.33 mg/dL
same,CARBON DIOXIDE,[2],31.33 mmol/L
same,CHLORIDE,[2],101.33 MEQ/L
same,CHOLESTEROL,[2],100.67 mg/dL
same,CREATINE PHOSPHOKINASE,[2],265.67 u/L
same,CREATININE,[2],0.14 mg/dL
same,GLUCOSE,[2],137.33 mg/dL
same,LACTATE DEHYDROGENASE,[2],201.67 u/L
same,LIPASE,[2],10 u/L
same,PHOSPHORUS,[2],11.8 mg/dL
same,POTASSIUM,[2],6.69 MEQ/L
same,SODIUM,[2],143.93 MEQ/L
same,TOTAL BILIRUBIN,[2],0.23 mg/dL
same,TOTAL PROTEIN,[2],6.3 G/DL
same,URIC ACID,[2],1.2 mg/dL
same,ABSOLUTE BASOPHIL,[3],0 CELLS/uL
same,ABSOLUTE EOSINOPHIL,[3],56.33 CELLS/uL
same,ABSOLUTE LYMPHOCYTE,[3],14978 CELLS/uL
same,ABSOLUTE MONOCYTE,[3],125.33 CELLS/uL
same,ABSOLUTE SEGMENTED NEUTROPHIL,[3],2373.67 CELLS/uL
same,BASOPHIL,[3],0%
same,EOSINOPHIL,[3],0.33%
same,ERYTHROCYTE COUNT,[3],5.38 x10E6/uL
same,HEMATOCRIT,[3],35.27%
same,HEMOGLOBIN,[3],13.67 G/DL
same,LEUKOCYTE COUNT,[3],17.53 x10E3/uL
same,LYMPHOCYTE,[3],85.67%
same,MEAN CORPUSCULAR HEMOGLOBIN,[3],25.4 pg
same,MEAN CORPUSCULAR HEMOGLOBIN CONCENTRATION,[3],38.77 G/DL
same,MEAN CORPUSCULAR VOLUME,[3],65.5 fL
same,MONOCYTE,[3],0.67%
same,NEUTROPHIL,[3],13.33%
same,NUCLEATED RED BLOOD CELLS,[3],0 /100WBC
same,PLATELET COUNT,[3],1317 x10E3/uL
same,ALANINE AMINOTRANSFERASE,[3],63.33 u/L
same,ALBUMIN,[3],4.37 G/DL
same,ALKALINE PHOSPHATASE,[3],310 u/L
same,ASPARTATE AMINOTRANSFERASE,[3],80.67 u/L
same,BLOOD UREA NITROGEN,[3],19.33 mg/dL
same,CARBON DIOXIDE,[3],28.67 mmol/L
same,CHLORIDE,[3],98.67 MEQ/L
same,CHOLESTEROL,[3],107 mg/dL
same,CREATINE PHOSPHOKINASE,[3],346.67 u/L
same,CREATININE,[3],0.21 mg/dL
same,GLUCOSE,[3],155.67 mg/dL
same,LACTATE DEHYDROGENASE,[3],272.33 u/L
same,LIPASE,[3],12.33 u/L
same,PHOSPHORUS,[3],12.8 mg/dL
same,POTASSIUM,[3],6.92 MEQ/L
same,SODIUM,[3],140.37 MEQ/L
same,TOTAL BILIRUBIN,[3],0.17 mg/dL
same,TOTAL PROTEIN,[3],6.17 G/DL
same,URIC ACID,[3],1.6 mg/dL
